Data on 3 compounds can be found in patent US11510428B2, “Rebaudioside B and derivatives” (SWEET GREEN FIELDS INTERNATIONAL CO., LIMITED, priority 2011, dated 2022).

Experiment [1] is described as follows: Taste comparison between RB and RA by experts (Example 7). Format: in vivo, human. The settings on record: 400 ppm aqueous solution. The source says: Taste comparison between RB (prepared in Example 1, first part) and RA Purity of RA was 99.0% by HPLC and RB was 99.1% by HPLC.
RB sample: 400 ppm aqueous solution
RA sample: 400 ppm aqueous solution

Experiment [2] in a line: General taste and sweetness statements on steviol glycosides, RA, RB and RB salt (background and description). The experiment is classed as in vivo.
For experiment [3] the following is noted: cited from earlier work.
Experiment [4] in a line: Sensory evaluation after adding Reb D to samples of Example 9 (Example 10). The experiment is classed as in vivo, human. The settings on record: total concentration of rebaudiosides 400 ppm.

As to `C=C1C[C@@]23CC[C@H]4[C@@](C)(CCC[C@@]4(C)C(=O)O[C@@H]4O[C@H](CO)[C@@H](O)[C@H](O)[C@H]4O)[C@@H]2CC[C@]1(O[C@@H]1O[C@H](CO)[C@@H](O)[C@H](O[C@@H]2O[C@H](CO)[C@@H](O)[C@H](O)[C@H]2O)[C@H]1O[C@@H]1O[C@H](CO)[C@@H](O)[C@H](O)[C@H]1O)C3` [RA, Rebaudioside A], the Bitterness result in experiment [1] (7/10 experts) was “strong bitterness profile”. The “Concentration that provides maximum sweetness” value in experiment [2] (aqueous solution) was “About 250 ppm”. In experiment [2] (in food products), the “Concentration above which there is no increased perceived sweetness” value is on record as “about 500 ppm”. In addition, in experiment [3] (100% purity RA, e.g. 500 ppm aqueous solution), the Bitterness and aftertaste result is reported as “appear strongly at higher concentrations”. In experiment [3] (increased sweetness and decreased bitterness, Phytochemistry 68, 2007), the Taste quality result is given as “better than stevioside”.
Turning to `C=C1C[C@@]23CC[C@H]4[C@@](C)(CCC[C@@]4(C)C(=O)O[C@@H]4O[C@H](CO)[C@@H](O)[C@H](O)[C@H]4O[C@@H]4O[C@H](CO)[C@@H](O)[C@H](O)[C@H]4O)[C@@H]2CC[C@]1(O[C@@H]1O[C@H](CO)[C@@H](O)[C@H](O[C@@H]2O[C@H](CO)[C@@H](O)[C@H](O)[C@H]2O)[C@H]1O[C@@H]1O[C@H](CO)[C@@H](O)[C@H](O)[C@H]1O)C3` [Reb D, Rebaudioside D], the “Sensory taste profile on addition of Reb D” value in experiment [4] is on record as “can improve sensory taste profile”.
Rebaudioside B [RB]: in experiment [1], the Taste profile result was “tasted better than RA”. Besides, in experiment [1] (7/10 experts), the Bitterness entry is recorded as “less bitterness than RA” and the Sweetness entry is listed as “lesser sweetness than RA”. In addition, the On-set profile result in experiment [2] (compared with other steviol glycosides) is listed as “short on-set profile”.
